{"source": "patent EP0041891A1", "about": "“6-Methyl-4-(1-piperazinyl)-furo(3,2-c)pyridines, process for their preparation and their therapeutic use” (RIOM LABORATOIRES- C.E.R.M. (Société Anonyme), priority 1980, dated 1981)", "key": {"[1]": {"test_system": "ptosis réserpinique chez la souris", "experiment": "Antagonism of reserpine-induced ptosis in the mouse (test A)", "type": "in vivo", "conditions": "60 min before reserpine i.p., ptosis score (RUBIN) 3 h after reserpine, pair of scores given", "procedure": "L'activité psychopharmacologique et spécialement l'activité antidépressive des composés de formule I (dans lesquels R représente l'hydrogène ou le radical méthyle) est illustrée par le résultat des tests suivants : • A - Antagonisme du ptosis réserpinique chez la souris Le produit étudié (ou le.véhicule seul - gomme arabique et eau 1/1 - pour le lot témoin) est administré par intubation oesophagienne à des souris de sexe mâle, de souche OF1 IFFA CREDO de poids moyen 22 + 1 g, puis 60 minutes après traitement, tous les animaux reçoivent par voie intrapéritonéale 1 mg.kg de Réserpine base.\nLe composé de l'exemple 1 et la quipazine prise comme référence, ont été administrés à raison de 40 mg.kg^-1 et le composé de l'exemple 2 à raison de 10 mg.kg^-1.\nL'appréciation du ptosis (oeil gauche) est donnée selon la cotation de RUBIN et Coll. [J. Pharmacol. Exp. Ther. 120, 125-136 (195717 3 heures après l'administration de Réserpine."}, "[2]": {"test_system": "stéréotypies induites par l'amphétamine", "experiment": "Potentiation of amphetamine-induced stereotypies in the rat (test B)", "type": "in vivo, rats SPRAGUE-DAWLEY", "conditions": "for B-Potentialisation des stéréotypies induites par l'amphétamine (score global sur 3 heures): global score over 3 h, printed as treated/control", "procedure": "B - Potentialisation des stéréotypies induites par l'amphétamine\nCe test est effectué sur des rats SPRAGUE-DAWLEY de souche OFA, provenant de l'élevage IFFA CREDO et d'un poids moyen de 150 + 10 g.\nLe protocole mis en oeuvre est celui préconisé par SIMON et CHERMAT [J. Pharmacol. (Paris) 3 (2) 235-238 (1972)]%. Le produit étudié (ou le véhicule seul pour le lot témoin) est administré par voie intrapéritonéale à raison de 5 mg.kg^-1.\nLes résultats expriment le score global sur 3 heures."}, "[3]": {"test_system": "comportement \" muricide \" chez le rat LONG-EVANS", "experiment": "Antagonism of muricide behaviour in the LONG-EVANS rat (test C)", "type": "in vivo", "conditions": "5 mg.kg^-1 i.p., 60 min before the mouse is presented; percent decrease versus control group", "procedure": "C - Antagonisme du comportement \" muricide \" chez le rat LONG-EVANS\nLes animaux utilisés sont des rats de sexe mâle LONG-EVANS de souche pie-noire, en provenance de l'élevage IFFA CREDO, dont la période d'isolement dans des cages individuelles est supérieure à 6 mois. L'administration des composés (ou du véhicule pour les animaux de groupe de contrôle) est effectuée par voie intrapéritonéale à raison de 5 mg.kg ^1, 60 minutes avant la mise en présence d'une souris avec les rats isolés (n ≥ 8 ) .\nLe.comportement classiquement décrit comme \" muricide \" /VALZELLI L. - Actualités Pharmacologiques, 24, 133-152, (1971)] est positif si le rat tue la souris en un temps inférieur ou égal à 3 minutes.\nLes résultats sont exprimés en pourcentage de diminution par rapport à celui du groupe des animaux de contrôle."}, "[4]": {"experiment": "Estimated oral LD50 in the mouse", "conditions": "in vivo, estimate, read-out: Evaluation DL 50", "source_text": "Dans ce tableau, on indique en outre une estimation de la DL 50 des composés par voie orale chez la souris."}, "[5]": {"conditions": "40 mg.kg^-1 oral (oesophageal intubation)"}, "[6]": {"conditions": "5 mg.kg^-1 i.p., percent increase of global score over control"}}, "data": [{"smiles": "Cc1cc2occc2c(N2CCNCC2)n1", "note": "[EXEMPLE 1, 6-methyl-4-(l-piperazinyl)-furo [3,2-c] pyridine]", "values": [{"measurement": "A-Activité anti-réserpinique vis-à-vis du ptosis", "setting": "[1]; [5]", "value": "13 / 23"}, {"measurement": "B-Potentialisation des stéréotypies induites par l'amphétamine (score global sur 3 heures)", "setting": "[2]; 5 mg.kg^-1 i.p.", "value": "118/95"}, {"measurement": "B-Potentialisation des stéréotypies induites par l'amphétamine", "setting": "[2]; [6]", "value": "24,2%"}, {"measurement": "C-Antagonisme du comportement muricide", "setting": "[3]", "value": 90, "unit": "%"}, {"measurement": "LD50", "setting": "[4]", "value": 250, "unit": "mg/kg"}]}, {"smiles": "c1cc2occc2c(N2CCNCC2)n1", "note": "[EXEMPLE 2, 4-(l-piperazinyl)-furo [3,2-c] pyridine]", "values": [{"measurement": "A-Activité anti-réserpinique vis-à-vis du ptosis", "setting": "[1]; 10 mg.kg^-1 oral (oesophageal intubation)", "value": "15 / 22"}, {"measurement": "B-Potentialisation des stéréotypies induites par l'amphétamine (score global sur 3 heures)", "setting": "[2]; 5 mg.kg^-1 i.p.", "value": "129/114"}, {"measurement": "B-Potentialisation des stéréotypies induites par l'amphétamine", "setting": "[2]; [6]", "value": "13,2%"}, {"measurement": "C-Antagonisme du comportement muricide", "setting": "[3]", "value": 74, "unit": "%"}, {"measurement": "LD50", "setting": "[4]", "value": 200, "unit": "mg/kg"}]}, {"smiles": "c1ccc2nc(N3CCNCC3)ccc2c1", "note": "[QUIPAZINE, quipazine, reference compound]", "values": [{"measurement": "A-Activité anti-réserpinique vis-à-vis du ptosis", "setting": "[1]; [5]", "value": "14 / 23"}, {"measurement": "B-Potentialisation des stéréotypies induites par l'amphétamine", "setting": "[2]; even at 20 I P", "value": "Inactif même à 20 I P"}, {"measurement": "C-Antagonisme du comportement muricide", "setting": "[3]", "value": "64,7%"}, {"measurement": "LD50", "setting": "[4]", "value": "233 to 376", "unit": "mg/kg"}]}]}
